Results as given in paper PMC8151276, “An Integrated Approach toward NanoBRET Tracers for Analysis of GPCR Ligand Engagement” (Molecules, 2021).

Biological target: T1, NPSR1 (Homo sapiens, UniProt Q6W5P4)
T1 construct: purchased Promega (in-house HiBiT-GPCR construct library, NanoBRET)
T1 sequence (Q6W5P4 1-371): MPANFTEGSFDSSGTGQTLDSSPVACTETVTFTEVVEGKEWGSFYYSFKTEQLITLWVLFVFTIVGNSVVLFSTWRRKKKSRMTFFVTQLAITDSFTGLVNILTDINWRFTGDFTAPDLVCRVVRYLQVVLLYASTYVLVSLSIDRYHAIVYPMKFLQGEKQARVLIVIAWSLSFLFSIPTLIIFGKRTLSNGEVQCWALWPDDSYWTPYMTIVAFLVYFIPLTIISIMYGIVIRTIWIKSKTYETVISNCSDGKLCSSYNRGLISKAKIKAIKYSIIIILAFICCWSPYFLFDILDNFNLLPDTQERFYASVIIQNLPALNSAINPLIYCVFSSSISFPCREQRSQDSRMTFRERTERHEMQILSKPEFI
Test: NanoBRET screen HiBiT-NPSR1 in HEK293
Format: binding
Method: Each tracer candidate was screened across the entire library of HiBiT-GPCR constructs using NanoBRET as the detection modality. As depicted in Figure 4A, the specificity of interactions was evaluated through decrease in BRET due to competitive displacement of a bound tracer by excess parental compound. Each tracer was analyzed for binding to each HiBiT-GPCR fusion in the absence and in the presence of competing parental compound. Briefly, HEK293 cells were transfected with HiBiT-GPCR constructs diluted into promoterless DNA to reduce expression and maximize translocation to the cell surface. Each tracer candidate was then screened at concentrations of 1 μM and 0.1 μM across cells expressing these fusions. Cells were treated for 1.5 h with tracer either alone or in the presence of 20 μM competing parental compound (i.e., control). BRET was measured upon addition of purified LgBiT and subsequent complementation with HiBiT genetically fused to a GPCR. The specificity of interactions was assessed through a decrease in BRET signal due to competitive displacement of the bound tracer. To further gauge the robustness of these interactions, the fold response over the control (i.e., BRETtracer/BRETcontrol) was calculated. We chose a 1.5-fold response, which translates to ≥7-fold signal over noise as the minimal threshold required to score an interaction as positive.
HiBiT-GPCR DNA constructs were diluted in 10 mM Tris pH 8 to a final concentration of 0.01 μg/μL, arrayed in 96-well plates and stored at −20 °C. For transfection, HEK293 cells were suspended in Opti-MEM (without phenol red) supplemented with 2% fetal bovine serum (Seradigm) and 100 units/mL penicillin–streptomycin (Gibco) at a final concentration of 220,000 cells/mL and dispensed into white 96-well plates at 90 μL/well. Subsequent transfections and screens were carried using an Agilent Bravo Automated Liquid Handling Platform. First, the 96-well HiBiT DNA arrays were diluted 25-fold in Opti-MEM (without serum or phenol red) to a final concentration of 0.0004 μg/μL and 20 μL of the diluted DNAs were transferred into new 96-well plates. Next, promoterless carrier DNA (1 μg/μL) was diluted 25-fold (0.04 μg/μL) and then dispensed into the diluted arrays at 20 μL/well. Following brief mixing, Viafect transfection reagent (Promega) diluted 16-fold into Opti-MEM was dispensed into the plates at 40 μL/well. After mixing by pipetting, plates were incubated for 10 min on the pipetting station deck. The DNA-transfection reagent complexes were then added to plates containing cells. To facilitate the screen, 10 μL of DNA-transfection reagent complexes were added in duplicates to the top 4 and bottom 4 rows, resulting in two identical 48-well arrays per plate. Plates with transfected cells were incubated for 18–20 h at 37 °C/5% CO2. A screen of each tracer across the entire library using two different concentrations requires duplicate plates of transfected cells. Depending on the number of tracers being screened, transfections can be scaled up using the same ratios. The next day, for each tracer, four 20× screening solutions in tracer dilution buffer (Promega) were prepared: two duplicates at final concentration of 20 μM and two duplicates at a final concentration of 2 μM. […] The four resulting solutions were diluted 4-fold in Opti-MEM without serum or phenol red to generate 5× solutions (5 µM and 0.5 µM tracer +/− 100 μM competing compound). To screen the library, a BioTek MultiFlo FX liquid dispenser was used to dispense 22.5 µL of tracer solution to the top 4 rows and 22.5 µL tracer + competing compound solution to the 4 bottom rows. Plates were briefly mixed on an orbital shaker and incubated for 1.5 h at room temperature. […] Plates were briefly mixed on an orbital shaker and incubated for 15 min to allow complementation.

Row | SMILES | NanoBRET Fold Response (NPSR1, tracer 0.1μM) | NanoBRET Fold Response (NPSR1, tracer 1μM) | also measured
1 | Cc1nc2n(c(=O)c1CCN1CCC(c3noc4cc(F)ccc34)CC1)CCCC2OC(=O)NCCOCCOCCOCCOCCNC(=O)CCc1ccc2n1[B-](F)(F)[N+]1=C(c3ccc[nH]3)C=CC1=C2 (stereo not drawn) [Risperidone-2-NB590] | 1.00 | 0.90 | 
2 | CCOC(=O)c1cc(C#N)c(N2CCC(C(=O)NS(=O)(=O)Cc3ccccc3/C=C/C(=O)NCCNC(=O)CCc3ccc4n3[B-](F)(F)[N+]3=C(c5ccc[nH]5)C=CC3=C4)CC2)nc1C [AZD1283-1-NB590] |  |  | NanoBRET Fold Response (NPSR1, 0.1μM): 1.02; NanoBRET Fold Response (NPSR1, 1μM): 1.06
3 | Cc1cc2c(s1)Nc1ccccc1N=C2N1CCN(CCCNC(=O)CCOCCOCCOCCOCCNC(=O)CCc2ccc3n2[B-](F)(F)[N+]2=C(c4ccc[nH]4)C=CC2=C3)CC1 [Olanzapine-a-2-NB590] | 1.01 | 1.17 | 
4 | COc1ccccc1N1CCN(CCCCN2C(=O)c3ccc(CNC(=O)CCOCCNC(=O)c4ccc(CNC(=O)CCc5ccc6n5[B-](F)(F)[N+]5=C(c7ccc[nH]7)C=CC5=C6)cc4)cc3C2=O)CC1 [NAN-190-3-NB590] | 1.10 | 1.17 | 
5 | CC(C)N(CC[C@H](c1ccccc1)c1cc(CCNC(=O)CCOCCOCCOCCOCCNC(=O)CCc2ccc3n2[B-](F)(F)[N+]2=C(c4ccc[nH]4)C=CC2=C3)ccc1O)C(C)C [Tolterodine-2-NB590] |  | 1.34 | 
6 | CN(C)CCC=C1c2ccccc2CCc2ccc(C(=O)NCCNC(=O)CCOCCOCCOCCOCCNC(=O)CCc3ccc4n3[B-](F)(F)[N+]3=C(c5ccc[nH]5)C=CC3=C4)cc21 [Amitriptyline-b-2-NB590] |  |  | NanoBRET Fold Response (tracer at 0.1μM, listed as amitriptyline-b-2-NB590): 0.95; NanoBRET Fold Response (tracer at 1μM, listed as amitriptyline-b-2-NB590): 1.15
7 | O=C(CCOCCOCCOCCOCCNC(=O)CCc1ccc2n1[B-](F)(F)[N+]1=C(c3ccc[nH]3)C=CC1=C2)NCCCN1CCN(C2=Nc3ccccc3Oc3ccc(Cl)cc32)CC1 [Loxapine-a-2-NB590] | 0.98 | 1.04 | 
8 | CN(C)CCC=C1c2ccccc2CCc2ccc(C(=O)NCCNC(=O)CCOCCOCCOCCOCCNC(=O)CCc3ccc4n3[B-](F)(F)[N+]3=C(c5ccc[nH]5)C=CC3=C4)cc21 [Amitriptyline-a-2-NB590] |  |  | NanoBRET Fold Response (tracer at 0.1μM): 1.01; NanoBRET Fold Response (tracer at 1μM): 0.99
9 | O=C(CCc1ccc2n1[B-](F)(F)[N+]1=C(c3ccc[nH]3)C=CC1=C2)NCCOCCOCCNC(=O)OCCOCCN1CCN(C2=Nc3ccccc3Sc3ccccc32)CC1 [Quetiapine-a-2-NB590] | 0.87 | 0.90 | 
10 | COc1ccccc1N1CCN(CCCCN2C(=O)c3ccc(CNC(=O)CCOCCOCCOCCOCCNC(=O)CCc4ccc5n4[B-](F)(F)[N+]4=C(c6ccc[nH]6)C=CC4=C5)cc3C2=O)CC1 [NAN-190-2-NB590] | 0.90 | 0.93 | 
11 | CN1CCN(C2=Nc3cc(Cl)ccc3N(CC(=O)NCCOCCOCCOCCOCCNC(=O)CCc3ccc4n3[B-](F)(F)[N+]3=C(c5ccc[nH]5)C=CC3=C4)c3ccccc32)CC1 [Clozapine-c-2-NB590] |  |  | NanoBRET Fold Response (NPSR1, 0.1μM tracer): 1.02; NanoBRET Fold Response (NPSR1, 1μM tracer): 1.02
12 | COc1ccc2[nH]c(-c3ccc(CNC(=O)CCOCCOCCOCCOCCNC(=O)CCc4ccc5n4[B-](F)(F)[N+]4=C(c6ccc[nH]6)C=CC4=C5)cc3)c(CCNC(C)=O)c2n1 [AzomelatoninICO9-2-NB590] |  |  | NanoBRET Fold Response (0.1μM tracer): 0.98; NanoBRET Fold Response (1μM tracer): 0.96
13 | O=C(CCOCCOCCOCCOCCNC(=O)CCc1ccc2n1[B-](F)(F)[N+]1=C(c3ccc[nH]3)C=CC1=C2)NCCCN1CCN(C2=Nc3cc(Cl)ccc3Nc3ccccc32)CC1 [Clozapine-a-2-NB590] |  |  | NanoBRET Fold Response (NPSR1, 0.1μM tracer): 0.93; NanoBRET Fold Response (NPSR1, 1μM tracer): 1.15
14 | CCCn1c(=O)c2[nH]c(-c3ccc(OCC(=O)NCCNC(=O)CCOCCNC(=O)c4ccc(CNC(=O)CCc5ccc6n5[B-](F)(F)[N+]5=C(c7ccc[nH]7)C=CC5=C6)cc4)cc3)nc2n(CCC)c1=O [XAC-3-NB590] | 0.90 | 0.92 | 
15 | O=C(CCc1ccc2n1[B-](F)(F)[N+]1=C(c3ccc[nH]3)C=CC1=C2)NCc1ccc(C(=O)NCCOCCOCCNCC(O)COc2cccc3ccccc23)cc1 (stereo not drawn) [Propranolol-3-NB590] |  |  | NanoBRET Fold Response (NPSR1, 0.1μM): 1.00; NanoBRET Fold Response (NPSR1, 1μM): 0.98
16 | O=C(CCc1ccc2n1[B-](F)(F)[N+]1=C(c3ccc[nH]3)C=CC1=C2)NCc1ccc(C(=O)NCCOCCC(=O)N[C@@H]2CC[C@@]3(O)[C@H]4Cc5ccc(O)c6c5[C@@]3(CCN4CC3CC3)[C@H]2O6)cc1 [Naltrexone-3-NB590] | 1.12 | 0.92 | 
17 | N#CN=C(NCCCOc1cccc(CN2CCCCC2)c1)NCCNC(=O)CCOCCOCCOCCOCCNC(=O)CCc1ccc2n1[B-](F)(F)[N+]1=C(c3ccc[nH]3)C=CC1=C2 [Aminopotentidine-2-NB590] | 0.99 | 1.01 | 
18 | COc1ccc2c(n1)c(CCNC(C)=O)cn2CCNC(=O)CCc1ccc2n1[B-](F)(F)[N+]1=C(c3ccc[nH]3)C=CC1=C2 [Azamelatonin-1-NB590] |  |  | NanoBRET Fold Response (0.1μM tracer): 0.96; NanoBRET Fold Response (1μM tracer): 0.84
19 | CC(C)N(CC[C@H](c1ccccc1)c1cc(CCNC(=O)c2ccc(CNC(=O)CCc3ccc4n3[B-](F)(F)[N+]3=C(c5ccc[nH]5)C=CC3=C4)cc2)ccc1O)C(C)C [Tolterodine-BZ-NB590] | 1.12 | 0.99 | 
20 | CN1CCN(C2=Nc3cc(Cl)ccc3Nc3ccc(CNC(=O)CCOCCOCCOCCOCCNC(=O)CCc4ccc5n4[B-](F)(F)[N+]4=C(c6ccc[nH]6)C=CC4=C5)cc32)CC1 [Clozapine-b-2-NB590] |  |  | NanoBRET Fold Response (NPSR1, 0.1μM tracer): 1.05; NanoBRET Fold Response (NPSR1, 1μM tracer): 0.98
